Where no end group is shown, it is not given here.
Assays:
[1] = molecular target: Ab126 capture of the csPCNA isoform present in recombinant PCNA (Homo sapiens, UniProt P12004); test: Sandwich ELISA with Ab126 capture antibody and competing peptide; type: binding; details: Ab126 capture 1 μg/well, C20 detection; peptide 0.024-2400 ng/well; FIG. 15B
Procedure: (§1) A sandwich ELISA was performed in which either the csPCNA specific Ab126 antibody (1 μg/well) or the non-specific PCNA antibody C20 (1 μg/well) was immobilized to the ELISA plate, and used to capture the recombinant PCNA used in the assay. Residual binding sites on the ELISA plate were blocked with BSA, and recombinant PCNA was incubated with the immobilized capture antibody in the presence of a range of concentrations of competing peptide (UMPB6—(0.024 ng/well-2400 ng/well)). After washing off unbound PCNA, the bound protein was detected with the C20 antibody in the first case, and with Ab126 in the second case. These detection antibodies were added to each well of the ELISA plate. The appropriate alkaline phosphatase conjugated secondary anti-rabbit or anti-goat IgG antibody was incubated with the bound antibody in each of the ELISA plate wells, and after washing away non-specifically bound antibody with PBS-0.05% Tween 20, the amount of detection antibody bound to the captured PCNA was determined by incubating the secondary antibody remaining in each well with 1 mg/ml of p-nitrophenolphosphate for 30 minutes.

[2] = molecular target: C20 antibody capture of recombinant PCNA (Homo sapiens, UniProt P12004); test: Sandwich ELISA with C20 capture antibody and competing peptide; type: binding; details: C20 capture 1 μg/well, Ab126 detection; peptide 0.024-2400 ng/well; FIG. 15B
Chain of C20 antibody capture of recombinant PCNA (P12004 whole entry): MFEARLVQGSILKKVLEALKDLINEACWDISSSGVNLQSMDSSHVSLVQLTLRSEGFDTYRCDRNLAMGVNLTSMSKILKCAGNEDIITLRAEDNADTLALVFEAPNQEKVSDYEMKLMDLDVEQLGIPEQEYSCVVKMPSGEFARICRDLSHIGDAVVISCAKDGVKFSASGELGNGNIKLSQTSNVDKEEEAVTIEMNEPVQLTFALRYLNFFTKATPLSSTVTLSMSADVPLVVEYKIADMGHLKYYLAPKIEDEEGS
Procedure: as §1

Chain of Ab126 capture of the csPCNA isoform present in recombinant PCNA (P12004 whole entry, canonical isoform): as the sequence (P12004 whole entry) above

apparent IC50 for competing for the capture antibody [1]: over 1 μg/well | effect on ability of C20 antibody to capture recombinant PCNA [2]: no detectable effect
Sequence: LGIPEQEY [UMPB6]

From US9006396B2, “CsPCNA isoform antibodies and uses thereof” (priority 2005, dated 2015)
